Laboratory results reported in ChEMBL document CHEMBL5370533 (Eur J Med Chem, 2023).

Legend:
[1] = target: T1, Cyclin-dependent kinase 2 (Homo sapiens, UniProt P24941); experiment: Inhibition of human CDK2 assessed as enzyme activity at 0.123 uM pretreated for 20 mins followed by [gamma-33P]-ATP addition and measured after 120 mins in presence of 10 uM ATP by radiometric Hot-SpotSM Kinase assay; design: scale not given: the % may be the effect or the level left; conditions: time 140.0 min
[2] = target: T2, Receptor-type tyrosine-protein kinase FLT3 (Homo sapiens, UniProt P36888); experiment: Inhibition of human FLT3 using EAIYAAPFAKKK and [gamma-33P]-ATP as substrate pretreated for 20 mins followed by [gamma-33P]-ATP addition and measured after 120 mins in presence of 10 uM ATP by radiometric Hot-SpotSM Kinase assay
T2 sequence (P36888 whole entry): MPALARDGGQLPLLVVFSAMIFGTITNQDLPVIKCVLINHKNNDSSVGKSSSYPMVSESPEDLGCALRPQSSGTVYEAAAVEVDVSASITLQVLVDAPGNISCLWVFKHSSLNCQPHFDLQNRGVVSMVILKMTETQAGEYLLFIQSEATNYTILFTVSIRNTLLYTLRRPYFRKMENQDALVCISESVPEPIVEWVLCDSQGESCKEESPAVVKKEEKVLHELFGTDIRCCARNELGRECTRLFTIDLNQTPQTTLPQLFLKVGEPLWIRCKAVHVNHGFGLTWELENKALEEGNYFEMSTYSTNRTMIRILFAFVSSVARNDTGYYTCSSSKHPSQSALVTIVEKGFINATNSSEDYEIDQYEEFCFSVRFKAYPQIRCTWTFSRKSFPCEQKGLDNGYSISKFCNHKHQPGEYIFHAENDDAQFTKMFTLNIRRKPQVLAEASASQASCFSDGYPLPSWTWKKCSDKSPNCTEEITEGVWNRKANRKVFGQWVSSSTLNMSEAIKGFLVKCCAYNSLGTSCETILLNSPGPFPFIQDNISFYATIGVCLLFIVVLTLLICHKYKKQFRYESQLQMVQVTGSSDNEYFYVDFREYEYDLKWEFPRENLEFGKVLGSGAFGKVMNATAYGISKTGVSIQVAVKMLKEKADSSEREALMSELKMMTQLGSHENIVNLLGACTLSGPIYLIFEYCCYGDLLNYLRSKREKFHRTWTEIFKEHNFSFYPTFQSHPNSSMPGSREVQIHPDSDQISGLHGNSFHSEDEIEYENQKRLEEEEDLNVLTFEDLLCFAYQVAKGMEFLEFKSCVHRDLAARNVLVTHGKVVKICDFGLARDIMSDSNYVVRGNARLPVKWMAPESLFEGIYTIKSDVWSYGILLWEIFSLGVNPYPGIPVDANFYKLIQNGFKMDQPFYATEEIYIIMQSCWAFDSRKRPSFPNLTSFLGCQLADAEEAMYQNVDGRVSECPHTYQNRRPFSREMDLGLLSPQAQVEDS

[3] = target: T3, Cyclin-dependent kinase 6 (Homo sapiens, UniProt Q00534); experiment: Inhibition of human CDK6 assessed as enzyme activity at 0.123 uM pretreated for 20 mins followed by [gamma-33P]-ATP addition and measured after 120 mins in presence of 10 uM ATP by radiometric Hot-SpotSM Kinase assay; design: scale not given: the % may be the effect or the level left; conditions: time 140.0 min
MV4-11 [4] = experiment: Antiproliferative activity against human MV4-11 cells harboring FLT3 ITD mutant assessed as inhibition of cell growth incubated for 72 hrs by CellTiter-Glo luminescent assay; format: functional, cell-based; conditions: MV4-11, 72 h
[5] = target: T1, Cyclin-dependent kinase 2; experiment: Inhibition of human CDK2 pretreated for 20 mins followed by [gamma-33P]-ATP addition and measured after 120 mins in presence of 10 uM ATP by radiometric Hot-SpotSM Kinase assay
[6] = target: T3, Cyclin-dependent kinase 6; experiment: Inhibition of human CDK6 pretreated for 20 mins followed by [gamma-33P]-ATP addition and measured after 120 mins in presence of 10 uM ATP by radiometric Hot-SpotSM Kinase assay
[7] = target: Receptor-type tyrosine-protein kinase FLT3 (Homo sapiens) (UniProt P36888); experiment: Inhibition of human FLT3 assessed as enzyme activity using EAIYAAPFAKKK and [gamma-33P]-ATP as substrate at 0.123 uM pretreated for 20 mins followed by [gamma-33P]-ATP addition and measured after 120 mins in presence of 10 uM ATP by radiometric Hot-SpotSM Kinase assay; design: scale not given: the % may be the effect or the level left; conditions: time 140.0 min
[8] = Cytotoxicity against mouse BaF3 cells assessed as inhibition of cell growth incubated for 72 hrs; format: toxicity, cell-based
THP-1 = experiment: Antiproliferative activity against human THP-1 cells expressing wild type FLT3 assessed as inhibition of cell growth; format: functional, cell-based
MOLM-13 = experiment: Antiproliferative activity against human MOLM-13 cells harboring FLT3 ITD mutant assessed as inhibition of cell growth; format: functional, cell-based
U-937 = experiment: Antiproliferative activity against human U-937 cells expressing low level wild type FLT3 assessed as inhibition of cell growth; format: functional, cell-based
BaF3 [9] = experiment: cells; format: functional, cell-based; conditions: Mus musculus, BaF3, 72 h
Description: Antiproliferative activity against mouse BaF3 cells harboring FLT3 ITD mutant assessed as inhibition of cell growth incubated for 72 hrs

K562 = experiment: Antiproliferative activity against human K562 cells deficit of oncogenic FLT3 assessed as inhibition of cell growth; format: functional, cell-based
[10] = Cytotoxicity against human PBMC cells assessed as inhibition of cell growth; format: toxicity, cell-based
BaF3 [11] = experiment: Antiproliferative activity against mouse BaF3 cells harboring FLT3 D835V mutant assessed as inhibition of cell growth incubated for 72 hrs; format: functional, cell-based; conditions: BaF3, 72 h
HL-60 = experiment: Antiproliferative activity against human HL-60 cells expressing low level wild type FLT3 assessed as inhibition of cell growth; format: functional, cell-based
BaF3 [12] = experiment: cells; format: functional, cell-based; conditions: Mus musculus, BaF3, 72 h; remark: listed apart in the source
Description: Antiproliferative activity against mouse BaF3 cells harboring FLT3 ITD/D835V mutant assessed as inhibition of cell growth incubated for 72 hrs

BaF3 [13] = experiment: cells; format: functional, cell-based; conditions: Mus musculus, BaF3, 72 h; remark: listed apart in the source
Description: Antiproliferative activity against mouse BaF3 cells harboring FLT3 ITD/F691L mutant assessed as inhibition of cell growth incubated for 72 hrs

[14] = Toxicity against nu/nu mouse xenografted with human MV4-11 cells assessed as animal's mortality at 50 mg/kg, po qd for 2 days; format: organism-based; conditions: in vivo, 48 h, time 2 day
MV4-11 [15] = experiment: animal or person; format: functional, Homo sapiens; conditions: Mus musculus, MV4-11, 336 h, route po, time 2 weeks
Description: Antitumor activity against human MV4-11 cells xenografted in nu/nu mouse assessed as inhibition of tumor growth at 50 mg/kg, po qd for 2 weeks by vernier caliper analysis

[16] = Toxicity against nu/nu mouse xenografted with human MV4-11 cells assessed as decrease in body weight at 50 mg/kg, po qd for 2 weeks; format: organism-based; conditions: in vivo, 336 h
BaF3 [17] = experiment: cells; format: functional, cell-based; conditions: Mus musculus, BaF3, 72 h; remark: listed apart in the source
Description: Antiproliferative activity against mouse BaF3 cells harboring FLT3 ITD/N676D mutant assessed as inhibition of cell growth incubated for 72 hrs

T3 sequence (Q00534 whole entry): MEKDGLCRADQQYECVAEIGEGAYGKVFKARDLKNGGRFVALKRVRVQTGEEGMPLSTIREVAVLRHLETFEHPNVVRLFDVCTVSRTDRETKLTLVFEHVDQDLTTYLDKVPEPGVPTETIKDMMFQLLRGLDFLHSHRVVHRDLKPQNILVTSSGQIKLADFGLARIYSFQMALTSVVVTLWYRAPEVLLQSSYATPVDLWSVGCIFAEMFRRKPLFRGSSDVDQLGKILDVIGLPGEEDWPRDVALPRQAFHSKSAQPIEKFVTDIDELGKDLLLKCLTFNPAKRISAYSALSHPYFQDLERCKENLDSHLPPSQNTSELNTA

SMILES | Activity [1] | IC50 [2] | Activity [3] | IC50 (MV4-11 [4]) | other results
Cc1nc(Nc2c[nH]nc2C(=O)Nc2ccc(N3CCNCC3)cc2)cc(Oc2ccccc2)n1 | 82.3% | 0.0112 µM | 88.8% | – | –
O=C(Nc1ccc(N2CCOCC2)cc1)c1n[nH]cc1Nc1cc(C2CCCC2)ncn1 | 83.3% | 0.0583 µM | 93.3% | – | –
O=C(Nc1ccc(N2CCNCC2)cc1)c1n[nH]cc1Nc1cc(C2CC2)ncn1 | – | 0.00842 µM | – | 0.08 µM | IC50 [5]: 0.193 µM; IC50 [6]: 0.125 µM
O=C(Nc1ccc(N2CCNCC2)cc1)c1n[nH]cc1Nc1cc(-c2ccccc2)ncn1 | 89.3% | 0.0452 µM | 101% | – | –
O=C(Nc1ccc(N2CCNCC2)cc1)c1n[nH]cc1Nc1cc(C2CCCCCC2)ncn1 | 84.8% | 0.0289 µM | 94.3% | – | –
CN1CCN(Cc2ccc(NC(=O)c3n[nH]cc3Nc3cc(C4CCCC4)ncn3)cc2)CC1 | 78.8% | 0.0194 µM | 88.9% | 0.2 µM | –
Cc1cc(Oc2ccccc2)nc(Nc2c[nH]nc2C(=O)Nc2ccc(N3CCNCC3)cc2)n1 | 78.3% | – | 91.5% | – | Activity [7]: 71.7%
O=C(Nc1ccc(CN2CCOCC2)cc1)c1n[nH]cc1Nc1cc(C2CCCC2)ncn1 | 71.4% | 0.0297 µM | 92.6% | 0.21 µM | –
O=C(Nc1ccc(N2CCNCC2)cc1)c1n[nH]cc1Nc1cc(OC2CCCC2)ncn1 | – | 0.00784 µM | – | 0.11 µM | IC50 [5]: 0.135 µM; IC50 [6]: 0.158 µM
O=C(Nc1ccc(N2CCNCC2)cc1)c1n[nH]cc1Nc1cc(NC2CCCC2)ncn1 | 69.5% | 0.0212 µM | 72.9% | 0.1 µM | –
O=C(Nc1ccc(N2CCNCC2)cc1)c1n[nH]cc1Nc1cc(OC2CCCCCC2)ncn1 | 54.6% | 0.0288 µM | 58.1% | – | –
O=C(Nc1ccc(N2CCNCC2)cc1)c1n[nH]cc1Nc1cc(OCC2CCCC2)ncn1 | 51% | 0.0113 µM | 51.3% | 0.09 µM | –
CN1CCN(Cc2ccc(NC(=O)c3n[nH]cc3Nc3ccncn3)cc2)CC1 | – | 0.00729 µM | – | – | IC50 [5]: 0.023 µM; IC50 [6]: 0.0143 µM
CC(C)(C)c1cc(NC(=O)Nc2ccc(-c3cn4c(n3)sc3cc(OCCN5CCOCC5)ccc34)cc2)no1 [QUIZARTINIB] | – | – | – | 0.0053 µM | IC50 at 72 h [8]: > 10 µM; IC50 (THP-1): 0.201 µM; IC50 (MOLM-13): 0.0152 µM; IC50 (U-937): 0.251 µM; IC50 (BaF3 [9]): 0.001 µM; IC50 (K562): 0.291 µM; IC50 [10]: 1.26 µM; IC50 (BaF3 [11]): 0.1 µM; IC50 (HL-60): 0.771 µM; IC50 (BaF3 [12]): 0.093 µM
O=C(Nc1ccc(N2CCNCC2)cc1)c1n[nH]cc1Nc1cc(OC2CCCCC2)ncn1 | 53.1% | 0.0192 µM | 58.4% | 0.13 µM | –
CN1CCN(Cc2ccc(NC(=O)c3n[nH]cc3Nc3ncnc4[nH]ccc34)cc2)CC1 | – | – | – | 0.007 µM | IC50 at 72 h [8]: 0.155 µM; IC50 (BaF3 [13]): 0.056 µM; IC50 (MOLM-13): 0.0054 µM; Activity [14]: Toxic; IC50 (BaF3 [9]): 0.038 µM; IC50 (K562): 0.795 µM; IC50 [10]: 0.126 µM; IC50 (BaF3 [11]): 0.039 µM; inhibition in vivo at 50 mg/kg (MV4-11 [15]): 94.6%; Activity [16]: Toxic; IC50 (HL-60): 0.77 µM; IC50 (BaF3 [17]): 0.073 µM; IC50 (BaF3 [12]): 0.008 µM
Cc1cnc(Nc2c[nH]nc2C(=O)Nc2ccc(N3CCNCC3)cc2)nc1Oc1ccccc1 | 88.6% | – | 88.4% | – | Activity [7]: 83%
O=C(Nc1ccc(N2CCNCC2)cc1)c1n[nH]cc1Nc1cc(C2CCCC2)ncn1 | 79.3% | 0.0154 µM | 86.3% | 0.1 µM | –
O=C(Nc1ccc(N2CCNCC2)cc1)c1n[nH]cc1Nc1cc(C2=CCOCC2)ncn1 | 76.5% | 0.0251 µM | 86.4% | – | –
O=C(Nc1ccc(N2CCNCC2)cc1)c1n[nH]cc1Nc1cc(-c2ccoc2)ncn1 | 83.5% | 0.0413 µM | 87.5% | – | –
CO[C@@H]1[C@H](N(C)C(=O)c2ccccc2)C[C@H]2O[C@]1(C)n1c3ccccc3c3c4c(c5c6ccccc6n2c5c31)C(=O)NC4 [MIDOSTAURIN] | – | – | – | – | IC50 at 72 h [8]: 0.32 µM; IC50 (BaF3 [11]): 0.004 µM
